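How tested: cells in 96-well plates exposed to compound for 48 hours at five concentrations. GI50 = concentration required for 50% inhibition of growth. At the TGI there is no net growth.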
Tests used:
Assay in all cases: DTP human tumour cell line panel, 48 h
DU-145 prostate = system: DU-145 prostate
SNB-75 CNS = system: SNB-75 CNS
RXF 393 renal = system: RXF 393 renal
LOX IMVI melanoma = system: LOX IMVI melanoma
HT29 colon = system: HT29 colon
HCT-15 colon = system: HCT-15 colon
CCRF-CEM leukemia = system: CCRF-CEM leukemia
KM12 colon = system: KM12 colon
SK-MEL-28 melanoma = system: SK-MEL-28 melanoma
IGROV1 ovarian = system: IGROV1 ovarian
SNB-19 CNS = system: SNB-19 CNS
ACHN renal = system: ACHN renal
HCT-116 colon = system: HCT-116 colon
NCI-H522 lung = system: NCI-H522 lung
NCI/ADR-RES ovarian = system: NCI/ADR-RES ovarian
UACC-62 melanoma = system: UACC-62 melanoma
COLO 205 colon = system: COLO 205 colon
HCC-2998 colon = system: HCC-2998 colon
RPMI-8226 leukemia = system: RPMI-8226 leukemia
NCI-H226 lung = system: NCI-H226 lung
OVCAR-5 ovarian = system: OVCAR-5 ovarian
BT-549 breast = system: BT-549 breast
SF-268 CNS = system: SF-268 CNS
PC-3 prostate = system: PC-3 prostate
SK-OV-3 ovarian = system: SK-OV-3 ovarian
MDA-MB-231 breast = system: MDA-MB-231 breast
NCI-H460 lung = system: NCI-H460 lung
TK-10 renal = system: TK-10 renal
EKVX NSCLC = system: EKVX NSCLC
786-0 renal = system: 786-0 renal
UO-31 renal = system: UO-31 renal
MCF7 breast = system: MCF7 breast
M14 melanoma = system: M14 melanoma
OVCAR-3 ovarian = system: OVCAR-3 ovarian
HOP-92 NSCLC = system: HOP-92 NSCLC
MDA-MB-435 = system: MDA-MB-435
SR leukemia = system: SR leukemia
A549 NSCLC = system: A549 NSCLC
SF-539 CNS = system: SF-539 CNS
HOP-62 NSCLC = system: HOP-62 NSCLC
SN12C renal = system: SN12C renal
OVCAR-8 ovarian = system: OVCAR-8 ovarian
SW-620 colon = system: SW-620 colon
SK-MEL-5 melanoma = system: SK-MEL-5 melanoma
U251 CNS = system: U251 CNS
OVCAR-4 ovarian = system: OVCAR-4 ovarian
MOLT-4 leukemia = system: MOLT-4 leukemia
A498 renal = system: A498 renal
K-562 leukemia = system: K-562 leukemia
SF-295 CNS = system: SF-295 CNS
MALME-3M melanoma = system: MALME-3M melanoma
HS 578T breast = system: HS 578T breast
NCI-H23 lung = system: NCI-H23 lung
HL-60(TB) leukemia = system: HL-60(TB) leukemia
UACC-257 melanoma = system: UACC-257 melanoma
SK-MEL-2 melanoma = system: SK-MEL-2 melanoma

COc1ccc([As]=[As]c2ccc(OC)c(NCS(=O)(=O)O)c2)cc1NCS(=O)(=O)O (configuration not stated)
GI50 (DU-145 prostate): 3.56 µM | TGI (DU-145 prostate): 13.8 µM | GI50 (SNB-75 CNS): 1.27 µM | TGI (SNB-75 CNS): 2.8 µM | GI50 (RXF 393 renal): 1.41 µM | TGI (RXF 393 renal): 3.09 µM | GI50 (LOX IMVI melanoma): 1.34 µM | TGI (LOX IMVI melanoma): 4.49 µM | GI50 (HT29 colon): 2.25 µM | TGI (HT29 colon): 5.37 µM | GI50 (HCT-15 colon): 1.47 µM | TGI (HCT-15 colon): 3.31 µM | GI50 (CCRF-CEM leukemia): 0.415 µM | TGI (CCRF-CEM leukemia): 3.14 µM | GI50 (KM12 colon): 2.98 µM | TGI (KM12 colon): 10.5 µM | GI50 (SK-MEL-28 melanoma): 1.45 µM | TGI (SK-MEL-28 melanoma): 3 µM | GI50 (IGROV1 ovarian): 1.19 µM | TGI (IGROV1 ovarian): 3.4 µM | GI50 (SNB-19 CNS): 1.82 µM | TGI (SNB-19 CNS): 3.68 µM | GI50 (ACHN renal): 1.62 µM | TGI (ACHN renal): 3 µM | GI50 (HCT-116 colon): 1.7 µM | TGI (HCT-116 colon): 3.2 µM | GI50 (NCI-H522 lung): 0.324 µM | TGI (NCI-H522 lung): 1.53 µM | GI50 (NCI/ADR-RES ovarian): 3.49 µM | TGI (NCI/ADR-RES ovarian): 27.1 µM | GI50 (UACC-62 melanoma): 1.86 µM | TGI (UACC-62 melanoma): 4.6 µM | GI50 (COLO 205 colon): 1.52 µM | TGI (COLO 205 colon): 3.46 µM | GI50 (HCC-2998 colon): 2.67 µM | TGI (HCC-2998 colon): 8.8 µM | GI50 (RPMI-8226 leukemia): 0.926 µM | TGI (RPMI-8226 leukemia): 5.93 µM | GI50 (NCI-H226 lung): 4.07 µM | TGI (NCI-H226 lung): 17.3 µM | GI50 (OVCAR-5 ovarian): 2.02 µM | TGI (OVCAR-5 ovarian): 4.22 µM | GI50 (BT-549 breast): 1.11 µM | TGI (BT-549 breast): 2.45 µM | GI50 (SF-268 CNS): 1.62 µM | TGI (SF-268 CNS): 4.12 µM | GI50 (PC-3 prostate): 3.14 µM | TGI (PC-3 prostate): 11.7 µM | GI50 (SK-OV-3 ovarian): 10 µM | TGI (SK-OV-3 ovarian): 21.8 µM | GI50 (MDA-MB-231 breast): 1.56 µM | TGI (MDA-MB-231 breast): 3.4 µM | GI50 (NCI-H460 lung): 3.49 µM | TGI (NCI-H460 lung): 12.2 µM | GI50 (TK-10 renal): 1.86 µM | TGI (TK-10 renal): 3.55 µM | GI50 (EKVX NSCLC): 1.36 µM | TGI (EKVX NSCLC): 7.26 µM | GI50 (786-0 renal): 1.63 µM | TGI (786-0 renal): 3.51 µM | GI50 (UO-31 renal): 1.46 µM | TGI (UO-31 renal): 3.16 µM | GI50 (MCF7 breast): 1.09 µM | TGI (MCF7 breast): 3.44 µM | GI50 (M14 melanoma): 2.15 µM | TGI (M14 melanoma): 5.69 µM | GI50 (OVCAR-3 ovarian): 1.57 µM | TGI (OVCAR-3 ovarian): 3.06 µM | GI50 (HOP-92 NSCLC): 1.45 µM | TGI (HOP-92 NSCLC): 3.24 µM | GI50 (MDA-MB-435): 2.03 µM | TGI (MDA-MB-435): 5.26 µM | GI50 (SR leukemia): 0.691 µM | TGI (SR leukemia): 4.88 µM | GI50 (A549 NSCLC): 3.04 µM | TGI (A549 NSCLC): 9.96 µM | GI50 (SF-539 CNS): 1.39 µM | TGI (SF-539 CNS): 3.43 µM | GI50 (HOP-62 NSCLC): 2.4 µM | TGI (HOP-62 NSCLC): 5.9 µM | GI50 (SN12C renal): 1.54 µM | TGI (SN12C renal): 3.34 µM | GI50 (OVCAR-8 ovarian): 2.48 µM | TGI (OVCAR-8 ovarian): 6.84 µM | GI50 (SW-620 colon): 1.17 µM | TGI (SW-620 colon): 3.04 µM | GI50 (SK-MEL-5 melanoma): 1.86 µM | TGI (SK-MEL-5 melanoma): 4.27 µM | GI50 (U251 CNS): 0.768 µM | TGI (U251 CNS): 2.25 µM | GI50 (OVCAR-4 ovarian): 1.27 µM | TGI (OVCAR-4 ovarian): 2.6 µM | GI50 (MOLT-4 leukemia): 1.33 µM | TGI (MOLT-4 leukemia): 6.18 µM | GI50 (A498 renal): 1.65 µM | TGI (A498 renal): 3.26 µM | GI50 (K-562 leukemia): 0.615 µM | TGI (K-562 leukemia): 11.1 µM | GI50 (SF-295 CNS): 3.01 µM | TGI (SF-295 CNS): 9.48 µM | GI50 (MALME-3M melanoma): 1.41 µM | TGI (MALME-3M melanoma): 3.34 µM | GI50 (HS 578T breast): 3.21 µM | TGI (HS 578T breast): > 100 µM | GI50 (NCI-H23 lung): 2.57 µM | TGI (NCI-H23 lung): 8.62 µM | GI50 (HL-60(TB) leukemia): 1.51 µM | TGI (HL-60(TB) leukemia): 11.7 µM | GI50 (UACC-257 melanoma): 1.62 µM | TGI (UACC-257 melanoma): 3.37 µM | GI50 (SK-MEL-2 melanoma): 1.91 µM | TGI (SK-MEL-2 melanoma): 4.54 µM

Reference: PubChem BioAssay (NCI)
